Conditions: 101.33 kPa, Liquid

ClCCCl [1,2-dichloroethane]
Conditions	mass density [kg/m3]
283.15 K	1267.39
284.15 K	1265.95
285.15 K	1264.5
286.15 K	1263.05
287.15 K	1261.6
288.15 K	1260.15
289.15 K	1258.7
290.15 K	1257.25
291.15 K	1255.8
292.15 K	1254.35
293.15 K	1252.89
294.15 K	1251.44
295.15 K	1249.98
296.15 K	1248.52
297.15 K	1247.07
298.15 K	1245.61
299.15 K	1244.15
300.15 K	1242.69
301.15 K	1241.22
302.15 K	1239.76
303.15 K	1238.29
304.15 K	1236.83
305.15 K	1235.36
306.15 K	1233.89
307.15 K	1232.42
308.15 K	1230.95
309.15 K	1229.47
310.15 K	1228
311.15 K	1226.53
312.15 K	1225.05
313.15 K	1223.57
314.15 K	1222.09
315.15 K	1220.61
316.15 K	1219.13
317.15 K	1217.64
318.15 K	1216.16
319.15 K	1214.67
320.15 K	1213.18
321.15 K	1211.69
322.15 K	1210.2
323.15 K	1208.7
324.15 K	1207.21
325.15 K	1205.71
326.15 K	1204.21
327.15 K	1202.71
328.15 K	1201.21
329.15 K	1199.7
330.15 K	1198.19
331.15 K	1196.69
332.15 K	1195.18
333.15 K	1193.66

COCCOC [1,2-dimethoxyethane]
Conditions	mass density [kg/m3]
283.15 K	877.64
284.15 K	876.56
285.15 K	875.48
286.15 K	874.4
287.15 K	873.31
288.15 K	872.23
289.15 K	871.14
290.15 K	870.05
291.15 K	868.96
292.15 K	867.87
293.15 K	866.79
294.15 K	865.7
295.15 K	864.61
296.15 K	863.51
297.15 K	862.42
298.15 K	861.32
299.15 K	860.22
300.15 K	859.12
301.15 K	858.01
302.15 K	856.91
303.15 K	855.8
304.15 K	854.69
305.15 K	853.58
306.15 K	852.46
307.15 K	851.35
308.15 K	850.24
309.15 K	849.13
310.15 K	848.02
311.15 K	846.9
312.15 K	845.79
313.15 K	844.67
314.15 K	843.55
315.15 K	842.42
316.15 K	841.29
317.15 K	840.17
318.15 K	839.04
319.15 K	837.91
320.15 K	836.77
321.15 K	835.64
322.15 K	834.5
323.15 K	833.36
324.15 K	832.22
325.15 K	831.08
326.15 K	829.93
327.15 K	828.78
328.15 K	827.63
329.15 K	826.48
330.15 K	825.33
331.15 K	824.17
332.15 K	823.02
333.15 K	821.86

COCCOCCOC [2,5,8-trioxanonane]
Conditions	mass density [kg/m3]
283.15 K	953.66
284.15 K	952.67
285.15 K	951.69
286.15 K	950.7
287.15 K	949.71
288.15 K	948.72
289.15 K	947.73
290.15 K	946.74
291.15 K	945.75
292.15 K	944.76
293.15 K	943.76
294.15 K	942.79
295.15 K	941.79
296.15 K	940.79
297.15 K	939.8
298.15 K	938.8
299.15 K	937.8
300.15 K	936.81
301.15 K	935.81
302.15 K	934.82
303.15 K	933.82
304.15 K	932.82
305.15 K	931.82
306.15 K	930.82
307.15 K	929.83
308.15 K	928.83
309.15 K	927.82
310.15 K	926.83
311.15 K	925.82
312.15 K	924.82
313.15 K	923.82
314.15 K	922.81
315.15 K	921.81
316.15 K	920.8
317.15 K	919.8
318.15 K	918.79
319.15 K	917.78
320.15 K	916.78
321.15 K	915.77
322.15 K	914.75
323.15 K	913.75
324.15 K	912.73
325.15 K	911.72
326.15 K	910.7
327.15 K	909.69
328.15 K	908.67
329.15 K	907.65
330.15 K	906.63
331.15 K	905.62
332.15 K	904.6
333.15 K	903.59

CCOCCOCCOCC [diethylene glycol diethyl ether]
Conditions	mass density [kg/m3]
283.15 K	916.36
284.15 K	915.39
285.15 K	914.43
286.15 K	913.46
287.15 K	912.5
288.15 K	911.53
289.15 K	910.57
290.15 K	909.6
291.15 K	908.63
292.15 K	907.67
293.15 K	906.71
294.15 K	905.75
295.15 K	904.78
296.15 K	903.81
297.15 K	902.85
298.15 K	901.88
299.15 K	900.92
300.15 K	899.95
301.15 K	898.98
302.15 K	898.02
303.15 K	897.05
304.15 K	896.08
305.15 K	895.12
306.15 K	894.15
307.15 K	893.18
308.15 K	892.21
309.15 K	891.25
310.15 K	890.28
311.15 K	889.31
312.15 K	888.34
313.15 K	887.37
314.15 K	886.4
315.15 K	885.43
316.15 K	884.46
317.15 K	883.48
318.15 K	882.51
319.15 K	881.54
320.15 K	880.57
321.15 K	879.6
322.15 K	878.63
323.15 K	877.66
324.15 K	876.7
325.15 K	875.73
326.15 K	874.75
327.15 K	873.78
328.15 K	872.81
329.15 K	871.84
330.15 K	870.87
331.15 K	869.89
332.15 K	868.92
333.15 K	867.94

From the NIST ThermoML archive (doi:10.1021/je101361u)
